Measured values: patent US6664283B1, “Pharmaceuticals for neurogenic pain” (Yamanouchi Pharmaceutical Co., Ltd., priority 1999, dated 2003)
Where two headings read alike, the source gives them in different places.

Experiments:
[1] = tested on: nerve ligation-induced neuropathic pain animal models; details: cited from earlier work; for cold hyperalgesia / development of mechanical allodynia: intrathecal twice-daily on post-operative days 0-8
mGluR5a = molecular target: T1, mGluR5a (Rattus norvegicus, UniProt P31424); assay: intracellular calcium concentration in mGluR5a-expressed NIH3T3 cells; assay type: cell-based; details: up to 10 μM
T1 construct: expressed in transfected cells; host or cells: NIH3T3
T1 sequence (P31424 21-1171 isoform P31424-2 limits assumed): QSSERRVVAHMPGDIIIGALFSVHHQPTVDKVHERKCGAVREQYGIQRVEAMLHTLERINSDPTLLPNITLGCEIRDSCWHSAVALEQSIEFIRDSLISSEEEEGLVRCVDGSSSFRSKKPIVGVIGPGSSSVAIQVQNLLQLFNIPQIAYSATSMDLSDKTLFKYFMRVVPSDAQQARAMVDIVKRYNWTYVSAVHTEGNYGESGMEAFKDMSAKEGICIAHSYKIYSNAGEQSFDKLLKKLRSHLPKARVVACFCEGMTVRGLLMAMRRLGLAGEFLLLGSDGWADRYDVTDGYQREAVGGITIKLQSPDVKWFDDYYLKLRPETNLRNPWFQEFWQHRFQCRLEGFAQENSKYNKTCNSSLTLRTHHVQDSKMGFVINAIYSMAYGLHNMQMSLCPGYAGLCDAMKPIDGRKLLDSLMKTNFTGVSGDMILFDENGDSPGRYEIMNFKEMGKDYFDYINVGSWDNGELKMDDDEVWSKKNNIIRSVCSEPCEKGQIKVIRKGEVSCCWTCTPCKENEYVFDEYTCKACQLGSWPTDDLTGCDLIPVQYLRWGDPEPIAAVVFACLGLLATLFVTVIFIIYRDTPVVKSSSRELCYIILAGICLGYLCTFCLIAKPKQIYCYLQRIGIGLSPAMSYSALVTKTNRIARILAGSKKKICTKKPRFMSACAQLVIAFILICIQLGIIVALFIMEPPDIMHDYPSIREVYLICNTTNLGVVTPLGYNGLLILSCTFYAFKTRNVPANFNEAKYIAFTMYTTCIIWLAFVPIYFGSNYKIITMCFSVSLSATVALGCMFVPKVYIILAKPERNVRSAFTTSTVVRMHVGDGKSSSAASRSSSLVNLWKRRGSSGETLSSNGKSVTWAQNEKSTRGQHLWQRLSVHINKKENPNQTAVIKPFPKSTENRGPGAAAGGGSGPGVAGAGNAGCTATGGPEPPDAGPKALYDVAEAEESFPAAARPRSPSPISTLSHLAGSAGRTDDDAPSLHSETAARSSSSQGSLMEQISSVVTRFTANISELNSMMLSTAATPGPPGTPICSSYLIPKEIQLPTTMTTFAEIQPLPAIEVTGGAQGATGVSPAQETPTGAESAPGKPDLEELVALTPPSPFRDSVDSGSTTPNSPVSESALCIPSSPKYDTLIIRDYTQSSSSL
Method: (§1) The NIH3T3 cell lines expressing individually mGluR1 α and mGluR5a were cultured using DMEM containing 10% dialyzed fetal calf serum and 100 units/ml, 0.1 mg/ml of streptomycin sulfate. The CHO cell lines expressing individually mGluR2, R4, R6 and R7 were cultured using DMEM containing 10% dialyzed fetal calf serum, 100 units/ml, 0.1 mg/ml of streptomycin sulfate and 2 mM glutamine. Intracellular calcium concentration of the mGluR5a-expressed cells was measured using a spectrofluorometer as described previously (Nature, 383, 89-92, 1996).

mGluR7 = molecular target: T2, mGluR7 (Rattus norvegicus, UniProt P35400); assay: intracellular cAMP after forskolin stimulation in mGluR7-expressing CHO cells; assay type: cell-based; details: up to 100 μM; cAMP formation
T2 construct: expressed in transfected cells; host or cells: CHO
T2 sequence (P35400 35-915): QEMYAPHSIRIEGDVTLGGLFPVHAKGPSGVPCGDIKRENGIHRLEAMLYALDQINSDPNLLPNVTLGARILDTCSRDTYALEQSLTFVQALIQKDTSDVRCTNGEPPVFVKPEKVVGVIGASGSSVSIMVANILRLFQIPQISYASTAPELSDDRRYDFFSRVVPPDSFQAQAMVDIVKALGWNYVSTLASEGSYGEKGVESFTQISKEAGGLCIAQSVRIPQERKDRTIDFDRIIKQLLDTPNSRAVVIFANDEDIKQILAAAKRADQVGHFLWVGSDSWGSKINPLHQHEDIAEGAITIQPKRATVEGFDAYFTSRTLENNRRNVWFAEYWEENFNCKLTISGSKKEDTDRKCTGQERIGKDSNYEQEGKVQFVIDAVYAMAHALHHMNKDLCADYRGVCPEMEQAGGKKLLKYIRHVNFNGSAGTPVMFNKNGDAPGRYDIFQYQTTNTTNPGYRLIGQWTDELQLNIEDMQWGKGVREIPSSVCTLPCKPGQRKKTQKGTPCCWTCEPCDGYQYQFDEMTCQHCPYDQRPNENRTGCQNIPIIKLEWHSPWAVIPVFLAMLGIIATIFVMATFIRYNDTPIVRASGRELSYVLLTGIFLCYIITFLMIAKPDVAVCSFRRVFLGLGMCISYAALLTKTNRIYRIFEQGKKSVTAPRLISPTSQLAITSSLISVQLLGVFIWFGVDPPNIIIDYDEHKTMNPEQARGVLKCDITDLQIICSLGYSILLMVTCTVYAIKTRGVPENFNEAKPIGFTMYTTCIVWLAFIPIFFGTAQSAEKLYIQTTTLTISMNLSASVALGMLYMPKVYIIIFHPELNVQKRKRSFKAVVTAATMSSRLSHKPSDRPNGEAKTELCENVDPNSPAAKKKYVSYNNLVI
Method: as §1, with “Using cell lines expressing individually mGluR2, R6 and R7, cAMP formation after forskolin stimulation in the presence” for “Intracellular calcium concentration”, “IBMX” for “the mGluR5a-expressed cells”, “cAMP assay kit” for “spectrofluorometer”, “(Neuron, 8, 169-179, 1992).” for “(Nature, 383, 89-92, 1996).”

[2] = tested on: STZ-induced diabetes mice; assay: tail pinch test in STZ-induced diabetes mice model; assay type: in vivo, ICR mice; details: 45 minutes after administration, STZ mice day 15
Method: The test was carried out by modifying a previously reported method (Pharmacol. Biochem. Behav., 39, 541-544, 1991). STZ at a dose of 200 mg/kg was intraperitoneally administered to 4-weeks-old ICR mice. A pre-drug tail pinch test was carried out in the afternoon at the fourteenth day after the STZ-administration, and animals showing a reaction latency of 3 seconds or less were subjected to the next day's test. At the fifteenth day after the STZ-administration, each drug was administered orally and a post-drug tail pinch test was carried out 45 minutes after the drug administration. […] Statistical analysis was performed with Steel test between the control group and drug-administered group (* and ** in the table are as follows; *p<0.05, **p<0.01 vs. control group).

mGluR2 = molecular target: T3, mGluR2 (Rattus norvegicus, UniProt P31421); assay: intracellular cAMP after forskolin stimulation in mGluR2-expressing CHO cells; assay type: cell-based; details: up to 100 μM; cAMP formation
T3 construct: expressed in transfected cells; host or cells: CHO
T3 sequence (P31421 19-872): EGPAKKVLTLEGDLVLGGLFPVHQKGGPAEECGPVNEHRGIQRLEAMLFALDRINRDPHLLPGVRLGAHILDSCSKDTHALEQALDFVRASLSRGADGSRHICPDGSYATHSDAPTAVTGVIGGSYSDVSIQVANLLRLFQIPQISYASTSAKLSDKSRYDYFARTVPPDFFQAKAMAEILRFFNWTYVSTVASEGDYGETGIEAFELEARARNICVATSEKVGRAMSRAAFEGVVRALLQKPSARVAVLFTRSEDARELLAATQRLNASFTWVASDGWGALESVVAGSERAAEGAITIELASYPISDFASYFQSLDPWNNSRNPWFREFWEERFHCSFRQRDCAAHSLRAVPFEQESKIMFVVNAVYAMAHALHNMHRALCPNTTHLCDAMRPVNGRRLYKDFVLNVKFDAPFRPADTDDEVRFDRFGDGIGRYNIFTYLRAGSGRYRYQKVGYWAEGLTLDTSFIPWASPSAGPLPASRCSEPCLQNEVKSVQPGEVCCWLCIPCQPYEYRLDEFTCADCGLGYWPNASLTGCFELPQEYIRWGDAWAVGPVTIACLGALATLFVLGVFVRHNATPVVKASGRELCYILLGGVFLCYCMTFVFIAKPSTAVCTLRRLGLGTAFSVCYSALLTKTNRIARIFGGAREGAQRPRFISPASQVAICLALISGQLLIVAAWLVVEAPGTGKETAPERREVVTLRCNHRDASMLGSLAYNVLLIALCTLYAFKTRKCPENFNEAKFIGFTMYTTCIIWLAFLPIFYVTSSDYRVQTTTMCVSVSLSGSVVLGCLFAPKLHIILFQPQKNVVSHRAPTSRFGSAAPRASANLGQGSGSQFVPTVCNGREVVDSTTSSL
Method: as §1, with “Using cell lines expressing individually mGluR2, R6 and R7, cAMP formation after forskolin stimulation in the presence” for “Intracellular calcium concentration”, “IBMX” for “the mGluR5a-expressed cells”, “cAMP assay kit” for “spectrofluorometer”, “(Neuron, 8, 169-179, 1992).” for “(Nature, 383, 89-92, 1996).”

mGluR1 = molecular target: T4, mGluR1 (Rattus norvegicus, UniProt P23385); assay: PI hydrolysis assay in cerebellar granule cells (mGluR1 antagonistic activity); assay type: cell-based
T4 construct: endogenous in cells; host or cells: primary cerebellar granule cells from Wistar rats aged 7 to 8 days
T4 sequence (P23385 19-1199): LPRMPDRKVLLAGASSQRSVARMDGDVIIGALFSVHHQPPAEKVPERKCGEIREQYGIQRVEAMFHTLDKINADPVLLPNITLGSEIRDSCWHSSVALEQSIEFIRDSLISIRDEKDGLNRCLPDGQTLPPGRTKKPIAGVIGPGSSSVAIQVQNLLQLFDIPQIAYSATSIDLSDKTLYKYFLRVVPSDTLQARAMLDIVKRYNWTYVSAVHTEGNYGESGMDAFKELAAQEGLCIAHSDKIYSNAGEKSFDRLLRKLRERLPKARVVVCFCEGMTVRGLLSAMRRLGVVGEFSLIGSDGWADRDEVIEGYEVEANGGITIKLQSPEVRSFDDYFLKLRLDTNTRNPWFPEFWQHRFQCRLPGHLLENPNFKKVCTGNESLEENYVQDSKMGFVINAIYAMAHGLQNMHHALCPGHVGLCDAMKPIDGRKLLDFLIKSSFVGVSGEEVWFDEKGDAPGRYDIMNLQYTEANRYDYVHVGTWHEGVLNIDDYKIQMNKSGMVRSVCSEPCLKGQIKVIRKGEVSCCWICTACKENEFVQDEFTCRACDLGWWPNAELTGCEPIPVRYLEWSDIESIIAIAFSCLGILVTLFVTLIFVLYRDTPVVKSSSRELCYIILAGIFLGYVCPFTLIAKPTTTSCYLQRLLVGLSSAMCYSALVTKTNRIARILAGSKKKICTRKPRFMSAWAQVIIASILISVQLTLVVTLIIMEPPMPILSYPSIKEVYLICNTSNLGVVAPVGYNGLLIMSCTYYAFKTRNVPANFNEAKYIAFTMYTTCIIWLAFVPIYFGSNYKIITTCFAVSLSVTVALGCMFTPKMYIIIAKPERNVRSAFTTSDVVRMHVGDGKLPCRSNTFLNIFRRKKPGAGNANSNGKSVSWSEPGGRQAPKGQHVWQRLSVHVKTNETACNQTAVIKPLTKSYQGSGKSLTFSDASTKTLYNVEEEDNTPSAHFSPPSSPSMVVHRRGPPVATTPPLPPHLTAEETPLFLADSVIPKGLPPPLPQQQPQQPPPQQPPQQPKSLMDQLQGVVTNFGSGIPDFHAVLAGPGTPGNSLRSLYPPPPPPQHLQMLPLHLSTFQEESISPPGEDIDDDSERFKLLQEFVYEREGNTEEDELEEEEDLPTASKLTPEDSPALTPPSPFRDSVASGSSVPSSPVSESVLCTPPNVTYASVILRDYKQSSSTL
Method: 1. Measurement of mGluR1 Antagonistic Activity Using Cerebellar Granule Cells The whole brain was removed from each of seven Wistar rats of 7 to 8 days of age after birth (Japan S L C), and then the cerebellum was isolated in an L-15 medium (Gibco) under a stereoscopic microscope. The isolated cerebellum was cut into pieces using a surgical knife and incubated at 37° C. for 15 minutes in 0.25% trypsin solution (Gibco) containing 750 U/ml of DNase I (Sigma). After termination of the enzyme reaction by adding fetal calf serum (JRH Biosciences), the tissue pieces were centrifuged and the supernatant was removed by sucking. After adding 10 ml of a high potassium medium, cells were dissociated by 5 to 6 times passage through a plastic pipette. After filtering the cell dispersion through a nylon mesh (40 μm pore), viable cells were counted. The cells were diluted in the high potassium medium and then seeded at a density of 8×10^5 cells/well onto 24-well culture plates (Sumitomo Bakelite) precoated with poly-L-lysine. […] High potassium medium: BME (Gibco)+10% immobilized fetal calf serum+25 mM KCl+1% penicillin/streptomycin (Gibco) The PI hydrolysis was measured as described by Aramori et al(Neuron, 8, 757-765, 1992). […] The eluate was mixed with a liquid scintillator (Aquasol-2) and the radioactivity in the eluate was determined by a liquid scintillation spectrometer.

mGluR6 = molecular target: T5, mGluR6 (Rattus norvegicus, UniProt P35349); assay: intracellular cAMP after forskolin stimulation in mGluR6-expressing CHO cells; assay type: cell-based; details: up to 100 μM; cAMP formation
T5 construct: expressed in transfected cells; host or cells: CHO
T5 sequence (P35349 24-871): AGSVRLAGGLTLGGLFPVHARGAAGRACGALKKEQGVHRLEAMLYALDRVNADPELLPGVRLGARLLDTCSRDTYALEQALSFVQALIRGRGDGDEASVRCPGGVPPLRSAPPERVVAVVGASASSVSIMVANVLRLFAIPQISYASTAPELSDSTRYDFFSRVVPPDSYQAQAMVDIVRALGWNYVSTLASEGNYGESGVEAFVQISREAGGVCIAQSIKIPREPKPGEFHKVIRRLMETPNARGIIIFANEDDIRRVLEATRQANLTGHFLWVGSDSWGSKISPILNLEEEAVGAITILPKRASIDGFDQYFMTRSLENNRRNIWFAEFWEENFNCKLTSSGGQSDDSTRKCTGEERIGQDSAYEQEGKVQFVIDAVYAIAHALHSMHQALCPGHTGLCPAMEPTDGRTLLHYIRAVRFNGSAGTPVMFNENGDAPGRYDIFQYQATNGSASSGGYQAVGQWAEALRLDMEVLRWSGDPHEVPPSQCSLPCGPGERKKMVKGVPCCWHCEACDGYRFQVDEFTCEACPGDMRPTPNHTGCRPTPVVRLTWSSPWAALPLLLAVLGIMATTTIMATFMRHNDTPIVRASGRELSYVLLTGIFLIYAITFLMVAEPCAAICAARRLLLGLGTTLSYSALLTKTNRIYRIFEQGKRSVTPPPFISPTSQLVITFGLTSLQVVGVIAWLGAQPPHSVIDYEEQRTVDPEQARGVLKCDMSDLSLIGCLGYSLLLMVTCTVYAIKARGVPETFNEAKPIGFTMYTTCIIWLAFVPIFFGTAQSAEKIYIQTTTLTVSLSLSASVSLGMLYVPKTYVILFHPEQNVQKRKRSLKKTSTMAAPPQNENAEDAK
Method: as §1, with “Using cell lines expressing individually mGluR2, R6 and R7, cAMP formation after forskolin stimulation in the presence” for “Intracellular calcium concentration”, “IBMX” for “the mGluR5a-expressed cells”, “cAMP assay kit” for “spectrofluorometer”, “(Neuron, 8, 169-179, 1992).” for “(Nature, 383, 89-92, 1996).”

[3] = tested on: spinal L5/L6 nerve-ligated rats; assay: von Frey hair (VFH) test in spinal L5/L6 nerve-ligated rats; assay type: in vivo, SD rats; details: 30 or 100 mg/kg po; 45 minutes after administration; 7 days after operation
Method: The test was carried out by modifying a previously reported method (Pain, 50, 355-363, 1992). SD rats were used. The left side lumbar nerves (L5 and L6) of each animal were ligated with silk threads under pentobarbital anesthesia. The following test was carried out 7 days after the operation.
After 45 minutes of oral administration of drug, von Frey hair (VFH) test was carried out to measure a mechanical pain threshold. The measurement was carried out on both hindpaws.
Although there was little difference in the mechanical pain thresholds between the left and right hindpaw in sham-operated rats in which the threshold was 17 to 20 g (log(g): 1.23-1.30), the obvious reduction of the mechanical pain threshold in the operated side hinpaw was found in spinal L5/L6 nerve-ligated rats.
Statistical analysis was performed with Dunnet test and carried out on each side hindpaw between the control group and drug-administered groups (** and *** in the table are as follows; **p<0.01, ***p<0.001 vs. control group).

mGluR1 α = molecular target: T6, mGluR1 α (Rattus norvegicus, UniProt P23385); assay: PI hydrolysis assay in mGluR1 α-expressed NIH3T3 cells; assay type: cell-based; details: 100 μM glutamate, read-out: IC50 value, inhibition of PI formation induced by 100 μM glutamate
T6 construct: expressed in transfected cells; host or cells: NIH3T3
T6 sequence (P23385 19-1199): as the sequence (P23385 19-1199) above
Method: Measurement of inhibition activity by mGluR1 α expression cell The NIH3T3 cell lines expressing individually mGluR1 α and mGluR5a were cultured using DMEM containing 10% dialyzed fetal calf serum and 100 units/ml, 0.1 mg/ml of streptomycin sulfate. The CHO cell lines expressing individually mGluR2, R4, R6 and R7 were cultured using DMEM containing 10% dialyzed fetal calf serum, 100 units/ml, 0.1 mg/ml of streptomycin sulfate and 2 mM glutamine. Using the mGluR1 α-expressed cells labeled with ^3H-inositol, hydrolysis of phosphatidylinositol was measured as described previously(Nature, 383, 89-92, 1996).

IC50 (mGluR1) [nM]	IC50 (mGluR1 α) [nM]	SMILES	cold hyperalgesia ([1]; assessed on days 4 and 8)	development of mechanical allodynia ([1]; assessed on days 4 and 8)	cold hyperalgesia ([1]; assessed on days 12 and 16)	development of mechanical allodynia ([1]; assessed on days 12 and 16)	development of lowered pain threshold ([1]; intrathecal twice-daily on post-operative days 8-11, any day of the test)	agonist or antagonist activity for mGluR5 (mGluR5a)	agonist or antagonist activity for mGluR7 (mGluR7)	reaction latency in tail pinch test ([2]; 30 mg/kg po)	agonist or antagonist activity for mGluR2 (mGluR2)	agonist or antagonist activity for mGluR6 (mGluR6)	mechanical pain threshold in the operated side hindpaw (VFH test) [3]	reaction latency in tail pinch test ([2]; 10 mg/kg po)
		N[C@H](C(=O)O)c1ccc(C(=O)O)cc1 [(S)-4CPG, (S)-4-carboxyphenylglycine]	attenuated cold hyperalgesia	inhibited a development of mechanical allodynia	did not have an effect	did not have an effect	did not inhibit development of lowered pain threshold							
22		Cc1c(C(=O)N(C)C2CCCCC2)sc2nc3ccc(N)cc3n12.Cl.Cl [compound A, 6-amino-N-cyclohexyl-N, 3-dimethylthiazolo[3,2-a]benzoimidazole-2-carboxamide dihydrochloride]						did not show any agonist or antagonist activity	did not show any agonist or antagonist activity	significantly prolonged the reaction latency	did not show any agonist or antagonist activity	did not show any agonist or antagonist activity	improved lowered mechanical pain thresholds	
2	1.7	C[C@H]1CCCC[C@H]1N(C)C(=O)c1cn2c(nc3ccc(N)cc32)s1.Cl.Cl [compound B, (+)-(1R,2S)-6-amino-N-methyl-N-(2-methylcyclohexyl)thiazolo [3,2-a]benzoimidazole-2-carboxamide dihydrochloride]												significantly prolonged the latency
